Source: the NIST ThermoML archive (doi:10.1016/j.fluid.2018.05.028)

Experiment: xn = mol fraction of the nth substance listed
Settings: 101 kPa, Liquid; for viscosity: Concentric cylinders viscometry; for speed of sound: Single path-length method; for mass density: Vibrating tube method

CCCCCCCCCCCCCCCC [hexadecane] + CCCO
Settings	mass density [kg/m3]	speed of sound [m/s]	viscosity [mPa·s]
293.15 K, x2 = 0	773.35	1357.4	3.408
293.15 K, x2 = 0.1	773.48	1349.3	3.214
293.15 K, x2 = 0.2	774.05	1342.3	3.093
293.15 K, x2 = 0.3	774.88	1334.9	2.99
293.15 K, x2 = 0.4	776.01	1326.8	2.916
293.15 K, x2 = 0.5	777.51	1317.5	2.845
293.15 K, x2 = 0.6	779.56	1306.4	2.776
293.15 K, x2 = 0.7	782.34	1293.2	2.671
293.15 K, x2 = 0.8	786.35	1275.7	2.541
293.15 K, x2 = 0.9	792.43	1252.8	2.388
298.15 K, x2 = 0	769.87	1338.5	3.035
298.15 K, x2 = 0.1	769.92	1330.3	2.858
298.15 K, x2 = 0.2	770.46	1323.2	2.754
298.15 K, x2 = 0.3	771.25	1315.8	2.665
298.15 K, x2 = 0.4	772.34	1307.7	2.596
298.15 K, x2 = 0.5	773.81	1298.5	2.526
298.15 K, x2 = 0.6	775.81	1287.5	2.463
298.15 K, x2 = 0.7	778.55	1274.5	2.374
298.15 K, x2 = 0.8	782.5	1257.4	2.264
298.15 K, x2 = 0.9	788.52	1234.9	2.131
303.15 K, x2 = 0	766.4	1319.8	2.708
303.15 K, x2 = 0.1	766.38	1311.4	2.55
303.15 K, x2 = 0.2	766.87	1304.3	2.45
303.15 K, x2 = 0.3	767.62	1296.9	2.376
303.15 K, x2 = 0.4	768.67	1288.8	2.314
303.15 K, x2 = 0.5	770.09	1279.7	2.244
303.15 K, x2 = 0.6	772.04	1268.8	2.187
303.15 K, x2 = 0.7	774.73	1256	2.108
303.15 K, x2 = 0.8	778.64	1239.2	2.012
303.15 K, x2 = 0.9	784.59	1217.2	1.89
308.15 K, x2 = 0	762.95	1301.3	2.432
308.15 K, x2 = 0.1	762.83	1292.8	2.288
308.15 K, x2 = 0.2	763.27	1285.6	2.201
308.15 K, x2 = 0.3	763.98	1278.2	2.13
308.15 K, x2 = 0.4	764.98	1270.1	2.073
308.15 K, x2 = 0.5	766.36	1261	2.01
308.15 K, x2 = 0.6	768.26	1250.2	1.952
308.15 K, x2 = 0.7	770.89	1237.6	1.88
308.15 K, x2 = 0.8	774.74	1221.1	1.795
308.15 K, x2 = 0.9	780.63	1199.5	1.687
313.15 K, x2 = 0	759.49	1283.1	2.199
313.15 K, x2 = 0.1	759.29	1274.3	2.067
313.15 K, x2 = 0.2	759.67	1267.1	1.989
313.15 K, x2 = 0.3	760.33	1259.6	1.925
313.15 K, x2 = 0.4	761.29	1251.5	1.871
313.15 K, x2 = 0.5	762.61	1242.4	1.812
313.15 K, x2 = 0.6	764.45	1231.7	1.756
313.15 K, x2 = 0.7	767.03	1219.3	1.691
313.15 K, x2 = 0.8	770.82	1203.1	1.614
313.15 K, x2 = 0.9	776.63	1182	1.515
318.15 K, x2 = 0	–	1265	1.996
318.15 K, x2 = 0.1	–	1256	1.874
318.15 K, x2 = 0.2	–	1248.7	1.8
318.15 K, x2 = 0.3	–	1241.2	1.743
318.15 K, x2 = 0.4	–	1233	1.69
318.15 K, x2 = 0.5	–	–	1.634
318.15 K, x2 = 0.6	–	–	1.58
318.15 K, x2 = 0.7	–	–	1.519
318.15 K, x2 = 0.8	–	–	1.448
318.15 K, x2 = 0.9	–	–	1.357
